From US8575091B1, “Amylin analogues and pharmaceutical compositions thereof” (Novo Nordisk A/S, priority 2012, dated 2013)
Like-named read-outs stand apart in the source and are kept apart here. Numbered stars: 1 amine (or outer) side, 2 acyl side, 3 side chain; on linkers, the order of the positions; unused ones are H or OH. Bridge positions count the residues as written; N and C are the ends. Side chains are listed from the residue outwards. Peptide text beside a SMILES is read from it. * marks the point of attachment. C20 diacid = O=C(O)CCCCCCCCCCCCCCCCCCC(=O)*; γGlu = O=C(O)[C@H](CCC(=O)[*:2])N[*:1]

Tests used:
[1] = target: T1, human amylin receptor (amylin 3(a) receptor: human calcitonin receptor + RAMP-3) (Homo sapiens, UniProt O60896+P30988); test: Assay (II)a functional assay, human amylin receptor (CRE luciferase, BHK cells); assay type: cell-based; conditions: for EC50: read-out: hAmylin-R funct. EC50
T1 construct: expressed in transfected cells
T1 sequence (P30988 25-474): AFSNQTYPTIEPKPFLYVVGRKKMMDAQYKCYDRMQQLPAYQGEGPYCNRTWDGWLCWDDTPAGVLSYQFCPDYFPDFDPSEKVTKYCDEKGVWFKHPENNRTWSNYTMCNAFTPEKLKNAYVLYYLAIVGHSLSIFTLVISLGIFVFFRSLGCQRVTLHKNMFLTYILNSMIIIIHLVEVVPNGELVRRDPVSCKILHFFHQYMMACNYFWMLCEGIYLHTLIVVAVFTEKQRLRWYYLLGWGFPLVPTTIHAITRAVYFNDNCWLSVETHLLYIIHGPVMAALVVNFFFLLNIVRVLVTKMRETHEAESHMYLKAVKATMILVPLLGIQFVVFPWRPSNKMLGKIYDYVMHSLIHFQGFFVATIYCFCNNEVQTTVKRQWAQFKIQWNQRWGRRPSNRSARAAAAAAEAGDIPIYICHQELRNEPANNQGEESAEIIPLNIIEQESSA
T1 sequence (O60896 24-148 partner): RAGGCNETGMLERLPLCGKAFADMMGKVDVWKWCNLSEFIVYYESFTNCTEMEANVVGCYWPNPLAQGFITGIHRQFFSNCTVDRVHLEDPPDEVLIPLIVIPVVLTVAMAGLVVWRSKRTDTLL

[2] = target: T2, human calcitonin receptor (Homo sapiens, UniProt P30988); test: Assay (II)a functional assay, human calcitonin receptor (CRE luciferase, BHK cells);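 also: luminescence from a CRE-driven luciferase reporter, read by single photon counting after cells were exposed to test samples for 3 h at 37 °C under 5% CO2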; assay type: cell-based; conditions: read-out: hCTR funct. EC50
T2 construct: expressed in transfected cells
T2 sequence (P30988 25-474): T1 sequence (P30988 25-474)

[3] = target: T3, human amylin receptor (Homo sapiens, UniProt O60896+P30988); test: Assay (V) binding to the human amylin receptor (SPA, 125I-rat amylin); conditions: human amylin receptor membranes, SPA; read-out: hAmylin-R bind IC50
T3 construct: expressed in transfected cells
T3 sequence (P30988 25-474): T1 sequence (P30988 25-474)
T3 sequence (O60896 24-148 partner): T1 sequence (O60896 24-148 partner)
Summary of the method: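 IC50, taken as receptor affinity, came from one-site binding competition analysis of scintillation proximity counts. Amylin 3(a)/CRE-luc cell membranes (35 ng/μL final) were mixed with SPA beads (0.05 mg/well) in 50 mM Hepes pH 7.4 containing CaCl2, MgCl2, 0.1% OA and 0.02% Tween20.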

[4] = target: T2, human calcitonin receptor; test: Assay (VII) binding to the human calcitonin receptor (SPA, 125I-Calcitonin); conditions: read-out: hCTR bind IC50;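 also: cell membranes coupled to SPA beads, competitive displacement read by scintillation counting, IC50 derived from a one-site competition fit as a measure of receptor affinity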
[5] = Table 6, human functional selectivity (hCTR EC50 / hAmylin-R EC50)
[6] = Table 6a, human functional selectivity (hCTR EC50 / hAmylin-R EC50), at least 5
[7] = Table 6j, hCTR funct. EC50 / hAmylin-R funct. EC50
[8] = Table 6k, hCTR funct. EC50 / hAmylin-R funct. EC50
[9] = functional assay, human amylin receptor

| Compound | Ratio hCT/hAmylin funct. [1, 5] | Ratio hCT/hAmylin funct. [1, 6] | Ratio hCT/hAmylin funct. ([1]; Table 6i, hCTR funct. EC50 / hAmylin-R funct. EC50) | EC50 ([1]; Table 6i, human amylin receptor functional) [nM] | Ratio hCT/hAmylin funct. [1, 7] | Ratio hCT/hAmylin funct. [1, 8] | EC50 [2] [nM] | IC50 [3] [nM] | IC50 [4] [nM] | EC50 [1, 9] [nM] |
| --- | --- | --- | --- | --- | --- | --- | --- | --- | --- | --- |
| CC[C@H](C)[C@H](NC(=O)[C@H](C)NC(=O)CNC(=O)[C@H](Cc1ccccc1)NC(=O)[C@H](CC(N)=O)NC(=O)[C@@H]1CCCN1C(=O)[C@H](CO)NC(=O)[C@H](CO)NC(=O)[C@H](Cc1c[nH]cn1)NC(=O)[C@H](CCCNC(=N)N)NC(=O)[C@H](CC(C)C)NC(=O)[C@H](Cc1ccccc1)NC(=O)[C@H](CCC(=O)O)NC(=O)[C@H](C)NC(=O)[C@H](CC(C)C)NC(=O)[C@H](CCCNC(=N)N)NC(=O)[C@H](CCC(N)=O)NC(=O)[C@@H](NC(=O)[C@H](C)NC(=O)[C@@H]1CSSC[C@H](NC(=O)[C@@H](N)CCCCNC(=O)CC[C@H](NC(=O)CC[C@H](NC(=O)CCCCCCCCCCCCCCCCCCC(=O)O)C(=O)O)C(=O)O)C(=O)N[C@@H](CC(N)=O)C(=O)N[C@@H]([C@@H](C)O)C(=O)N[C@@H](C)C(=O)N[C@@H]([C@@H](C)O)C(=O)N1)[C@@H](C)O)C(=O)N1CCC[C@H]1C(=O)N[C@@H](CO)C(=O)N[C@@H](CO)C(=O)N[C@H](C(=O)N[C@@H](CC(N)=O)C(=O)N[C@H](C(=O)NCC(=O)N[C@@H](CCCNC(=N)N)C(=O)N[C@@H](CC(N)=O)C(=O)N[C@H](C(=O)N[C@@H](Cc1ccc(O)cc1)C(N)=O)[C@@H](C)O)C(C)C)[C@@H](C)O [Example 88] (H-K([γGlu-γGlu-C20 diacid])CNTATCATQRLAEFLRHSSPNFGAIPSSTNVGRNTY-NH2; disulfide 2-7) | 8.5 | 8.5 | 8.5 | 0.773 | 8.5 | 8.5 | 6.55 | 0.75 | 34.9 |  |
| CC[C@H](C)[C@H](NC(=O)[C@H](C)NC(=O)CNC(=O)[C@H](Cc1ccccc1)NC(=O)[C@H](CC(N)=O)NC(=O)[C@@H]1CCCN1C(=O)[C@H](CO)NC(=O)[C@H](CO)NC(=O)[C@H](Cc1c[nH]cn1)NC(=O)[C@H](CCCNC(=N)N)NC(=O)[C@H](CC(C)C)NC(=O)[C@H](Cc1ccccc1)NC(=O)[C@H](CC(N)=O)NC(=O)[C@H](C)NC(=O)[C@H](CC(C)C)NC(=O)[C@H](CCCNC(=N)N)NC(=O)[C@H](CCC(N)=O)NC(=O)[C@@H](NC(=O)[C@H](C)NC(=O)[C@@H]1CSSC[C@H](NC(=O)[C@@H](N)CCCCNC(=O)COCCOCCNC(=O)COCCOCCNC(=O)CC[C@H](NC(=O)CCCCCCCCCCCCCCCCCCC(=O)O)C(=O)O)C(=O)N[C@@H](CC(N)=O)C(=O)N[C@@H]([C@@H](C)O)C(=O)N[C@@H](C)C(=O)N[C@@H]([C@@H](C)O)C(=O)N1)[C@@H](C)O)C(=O)N1CCC[C@H]1C(=O)N[C@@H](CO)C(=O)N[C@@H](CO)C(=O)N[C@H](C(=O)N1CCC[C@H]1C(=O)N[C@H](C(=O)NCC(=O)N[C@@H](CO)C(=O)N[C@@H](CC(N)=O)C(=O)N[C@H](C(=O)N[C@@H](Cc1ccc(O)cc1)C(N)=O)[C@@H](C)O)C(C)C)[C@@H](C)O [Example 96] | 21.0 | 21.0 |  |  | 21.0 | 21.0 | 3.8 | 0.166 | 13.2 | 0.181 |
| CC[C@H](C)[C@H](NC(=O)[C@H](C)NC(=O)CNC(=O)[C@H](Cc1ccccc1)NC(=O)[C@H](CC(N)=O)NC(=O)[C@@H]1CCCN1C(=O)[C@H](CO)NC(=O)[C@H](CO)NC(=O)[C@H](Cc1c[nH]cn1)NC(=O)[C@H](CCCNC(=N)N)NC(=O)[C@H](CC(C)C)NC(=O)[C@H](Cc1ccccc1)NC(=O)[C@H](Cc1c[nH]cn1)NC(=O)[C@H](C)NC(=O)[C@H](CC(C)C)NC(=O)[C@H](CCCNC(=N)N)NC(=O)[C@H](CCC(N)=O)NC(=O)[C@@H](NC(=O)[C@H](C)NC(=O)[C@@H]1CSSC[C@H](NC(=O)[C@@H](N)CCCCNC(=O)CC[C@H](NC(=O)CC[C@H](NC(=O)CCCCCCCCCCCCCCCCCCC(=O)O)C(=O)O)C(=O)O)C(=O)N[C@@H](CC(N)=O)C(=O)N[C@@H]([C@@H](C)O)C(=O)N[C@@H](C)C(=O)N[C@@H]([C@@H](C)O)C(=O)N1)[C@@H](C)O)C(=O)N1CCC[C@H]1C(=O)N[C@@H](CO)C(=O)N[C@@H](CO)C(=O)N[C@H](C(=O)N[C@@H](CC(N)=O)C(=O)N[C@H](C(=O)NCC(=O)N[C@@H](CO)C(=O)N[C@@H](CC(N)=O)C(=O)N[C@H](C(=O)N[C@@H](Cc1ccc(O)cc1)C(N)=O)[C@@H](C)O)C(C)C)[C@@H](C)O [Example 92] | 28.0 | 28.0 |  |  | 28.0 | 28.0 | 2.38 | 0.179 | 26 | 0.085 |
| CC[C@H](C)[C@H](NC(=O)[C@H](C)NC(=O)CNC(=O)[C@H](Cc1ccccc1)NC(=O)[C@H](CC(N)=O)NC(=O)[C@@H]1CCCN1C(=O)[C@H](CO)NC(=O)[C@H](CO)NC(=O)[C@H](Cc1c[nH]cn1)NC(=O)[C@H](CCCNC(=N)N)NC(=O)[C@H](CC(C)C)NC(=O)[C@H](Cc1ccccc1)NC(=O)[C@H](CCC(=O)O)NC(=O)[C@H](C)NC(=O)[C@H](CC(C)C)NC(=O)[C@H](CCCNC(=N)N)NC(=O)[C@H](CCC(N)=O)NC(=O)[C@@H](NC(=O)[C@H](C)NC(=O)[C@@H]1CSSC[C@H](NC(=O)[C@H](CCCCN)NC(=O)COCCOCCNC(=O)COCCOCCNC(=O)CC[C@H](NC(=O)CCCCCCCCCCCCCCCCCCC(=O)O)C(=O)O)C(=O)N[C@@H](CC(N)=O)C(=O)N[C@@H]([C@@H](C)O)C(=O)N[C@@H](C)C(=O)N[C@@H]([C@@H](C)O)C(=O)N1)[C@@H](C)O)C(=O)N1CCC[C@H]1C(=O)N[C@@H](CO)C(=O)N[C@@H](CO)C(=O)N[C@H](C(=O)N[C@@H](CC(N)=O)C(=O)N[C@H](C(=O)NCC(=O)N[C@@H](CO)C(=O)N[C@@H](CC(N)=O)C(=O)N[C@H](C(=O)N[C@@H](Cc1ccc(O)cc1)C(N)=O)[C@@H](C)O)C(C)C)[C@@H](C)O [Example 19] |  |  |  |  |  |  | 5.32 | 0.556 | 20.4 | 0.307 |
